# According to patent US20140030304A1, “Process for the Treatment of Synthetic Textiles with Cationic Biocides” (priority 2011, published 2014):
# Where two headings read alike, the source gives them in different places.
# System: Escherichia coli
# Assay: Quick-kill test (AATCC-100) on treated PP textile, Escherichia coli
# Type: cell-based
Molecule,"log-reduction / killing, E. coli","log-reduction / killing, E. coli (textile spray-treated with aqueous solution of unformulated biocide (2-3% w), 5 min, positive control) [log]","biocide activity against E. coli (textile spray-treated with aqueous solution of unformulated biocide (2-3% w), after 2 h)"
polyhexamethylenbiguanid [PHMB],showed killing,–,–
"CCCCCCCCCCCCCCCC[N+](C)(C)C.[Cl-] [CTAC, cetyltrimethylammonium chloride]",–,1.5,very effective
